Our source for the IC50 values is patent publication US20060264460A1 (Wyeth, priority 2005, published 2006).

As usually defined, the IC50 is the concentration needed to halve the response being measured.

For one assay, the target named is T1, human Cot/Tpl2 kinase (Homo sapiens, UniProt P41279).
T1 construct: human Cot/Tpl2 kinase construct encoding residues 30-398; 6His (N); made in house; host or cells: Sf9 insect cells, baculovirus system (BD Biosciences)
T1 sequence (P41279 30-398): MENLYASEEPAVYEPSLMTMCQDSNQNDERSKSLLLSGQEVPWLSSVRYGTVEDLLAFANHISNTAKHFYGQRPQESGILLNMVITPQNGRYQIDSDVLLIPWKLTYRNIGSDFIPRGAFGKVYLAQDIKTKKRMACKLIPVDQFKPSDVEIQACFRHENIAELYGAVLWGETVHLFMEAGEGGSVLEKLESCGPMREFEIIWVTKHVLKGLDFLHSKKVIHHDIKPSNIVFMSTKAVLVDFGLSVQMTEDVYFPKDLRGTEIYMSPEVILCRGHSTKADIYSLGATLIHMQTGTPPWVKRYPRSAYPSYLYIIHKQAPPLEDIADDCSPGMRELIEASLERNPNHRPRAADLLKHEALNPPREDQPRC
The experiment in a line: Tpl2/Cot kinase assay: GST-MEK1 phosphorylation detected by ELISA (DELFIA Eu). Format: biochemical. The following applies: 0.4 nM Tpl2, 35 nM GST-MEK1, 50 uM ATP, 1 h at 30° C. The gist of the method: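 Substrate phosphorylation (GST-MEK1 Ser217/221) quantified by DELFIA europium ELISA, yielding IC50 values. Reaction: 1 h at 30° C, pH 7.2 MOPS buffer, 50 uM ATP, 35 nM GST-MEK1, 0.4 nM monomeric His-Tpl2 purified from Sf9 cells, compounds at 1% final DMSO; stopped with EDTA.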
A general note: ELISA stands for enzyme-linked immunosorbent assay.
Compound `COc1c(C)cnc(CNc2cc(Cl)c3ncc(C#N)c(Nc4ccc(F)c(Cl)c4)c3c2)c1C` [Example 276, 8-chloro-4-[(3-chloro-4-fluorophenyl)amino]-6-{[(4-methoxy-3,5-dimethylpyridin-2-yl)methyl]amino}quinoline-3-carbonitrile] returned an IC50 of 4700 nM. Same read-out and setting: in the case of `CN1CCN(c2cc3ncc(C#N)c(Nc4ccc(F)c(Cl)c4)c3cc2NCc2cnc[nH]2)CC1` [Example 161, 6-((1H-imidazol-5-yl)methylamino)-4-(3-chloro-4-fluorophenylamino)-7-(4-methylpiperazin-1-yl)quinoline-3-carbonitrile] it was over 40000 nM; in that of `Cc1cccc(CNc2cc(Cl)c3ncc(C#N)c(Nc4ccc(F)c(Cl)c4)c3c2)n1` [Example 192, 8-chloro-4-(3-chloro-4-fluorophenylamino)-6-((6-methylpyridin-2-yl)methylamino)quinoline-3-carbonitrile], 170 nM. The same measure, in the same setting: in the case of `CN1CCC(n2cc(CNc3cc(Br)c4ncc(C#N)c(Nc5ccc(F)c(Cl)c5)c4c3)nn2)CC1` [Example 317, 8-bromo-4-[(3-chloro-4-fluorophenyl)amino]-6-({[1-(1-methylpiperidin-4-yl)-1H-1,2,3-triazol-4-yl]methyl}amino)quinoline-3-carbonitrile] it was 19 nM; in that of `COc1ncc(CNc2cc(C(F)(F)F)c3ncc(C#N)c(Nc4ccc(F)c(Cl)c4)c3c2)c(OC)n1` [Example 241], over 40000 nM.

Staying with this assay, now noted: Table 2; Tpl2/Cot kinase, GST-MEK1 substrate, 50 uM ATP.
Consider `CN1CCC(Nc2ccc3ncc(C#N)c(Nc4ccc(F)c(Cl)c4)c3c2)CC1` [Example 364], for which the IC50 is over 10000 nM. Still for that read-out and setting: in the case of `CC(C)(C)OC(=O)N1CCC(CCn2cc(CN(Cc3cn(CCC4CCN(C(=O)OC(C)(C)C)CC4)nn3)c3cc(Br)c4ncc(C#N)c(Nc5ccc(F)c(Cl)c5)c4c3)nn2)CC1` [Example 509] it was over 3000 nM; in that of `Fc1ccc(Nc2ncncc2-c2cccc(NCc3cnc[nH]3)c2)cc1Cl` [Example 535], over 3000 nM.

`CCc1[nH]cnc1CNc1cc(Cl)c2ncc(C#N)c(Nc3ccc(F)c(Cl)c3)c2c1` [Example 476] came in with an IC50 of 16 nM.

For `N#Cc1cnc2c(Br)cc(NCc3cn(CC4CCCN4)nn3)cc2c1Nc1ccc(F)c(Cl)c1` (stereo not shown) [Example 550], half-maximal inhibition (IC50) was put at 9.2 nM. On the same count and under the same terms, under `CC(C)c1cccc(Nc2c(C#N)cnc3ccc(NCCN4CCOCC4)cc23)c1` [Example 352] stands over 10000 nM. Still for that read-out and setting: in the case of `N#Cc1cnc2c(Br)cc(NCc3cn(CCCO)nn3)cc2c1Nc1ccc(F)c(Cl)c1` [Example 523] it was 18 nM; in that of `N#Cc1cnc2c(Cl)cc(NCC(=O)Nc3cccnc3)cc2c1Nc1ccc(F)c(Cl)c1` [Example 601], 110 nM; in that of `Cc1cc2ncc(C#N)c(Nc3ccc(F)c(Cl)c3)c2cc1N` [Example 392], over 40000 nM.

Still in this assay, the particulars now being: Tpl2/Cot kinase, GST-MEK1 substrate, 50 uM ATP.
`CCN1CCC(Cn2cc(CNc3cc(Cl)c4ncc(C#N)c(Nc5ccc(F)c(Cl)c5)c4c3)nn2)CC1` [Example 826]: 35 nM corresponded to half-maximal inhibition (IC50). In other words, the double-digit nanomolar range. Compound `CS(=O)(=O)Cn1cc(CNc2cc(Br)c3ncc(C#N)c(Nc4ccc(F)c(Cl)c4)c3c2)nn1` [Example 704] returned a half-inhibitory concentration (IC50) of 33 nM. Regarding `CC(C)N1CCC(Cn2cc(CNc3cc(Cl)c4ncc(C#N)c(Nc5ccc(F)c(Cl)c5)c4c3)nn2)CC1` [Example 827], it took 11 nM to reach half-maximal inhibition (IC50). `N#Cc1cnc2c(Cl)cc(NCc3cn(CCOCCOCCO)nn3)cc2c1Nc1ccc(F)c(Cl)c1` [Example 742] returned an IC50 of 91 nM. This IC50 lies about 8.3-fold higher than the previous one.

The same assay, now with this note: Tpl2/Cot kinase, GST-MEK1 substrate, 50 uM ATP, 1 h at 30° C.; Table 2.
As for `CC(C)N1CCN(CCn2cc(CNc3cc(Cl)c4ncc(C#N)c(Nc5ccc(F)c(Cl)c5)c4c3)nn2)CC1` [Example 965], the IC50 amounted to 430 nM. On the same count and under the same terms, in the case of `CCNC(=O)N1C2CCC1CC(n1cc(CNc3cc(Cl)c4ncc(C#N)c(Nc5ccc(F)c(Cl)c5)c4c3)nn1)C2` (stereo not shown) [Example 1052] it was 23 nM.

The compound `N#Cc1cnc2c(Cl)cc(NCc3cn(C4CC5CCC(C4)N5)nn3)cc2c1Nc1ccc(F)c(Cl)c1` (stereo not shown) [Example 997] yielded an IC50 of 11 nM. This IC50 lies about 2.1-fold lower than the previous one. As for `N#Cc1cnc2c(Cl)cc(NCc3cn(C4CCN(CC(F)(F)C(F)F)CC4)nn3)cc2c1Nc1ccc(F)c(Cl)c1` [Example 1018], the midpoint of inhibition, the IC50, lay at 400 nM.
